From ChEMBL document CHEMBL6092169, “Development of selective heterocyclic PDE4 inhibitors for treatment of psoriasis” (Eur J Med Chem, 2024)
Activity calls are given as the source filed them. The calls are words filed in the database; no cut-off is given here.

What was measured:
[1] = Clearance in male ICR mouse at 5 mg/kg, iv measured for 0.083 to 24 hrs by LC-MS/MS analysis; format: ADME, organism-based; conditions: in vivo, time 0.083-24 hrs
RAW264.7 [2] = assay: Anti-inflammatory activity in mouse RAW264.7 cells assessed as inhibition of LPS-induced TNF-alpha production incubated for 24 hrs by ELISA; format: functional, cell-based; conditions: RAW264.7, 24 h
[3] = Half life in male ICR mouse at 5 mg/kg, iv measured for 0.083 to 24 hrs by LC-MS/MS analysis; format: ADME, organism-based; conditions: in vivo, time 0.083-24 hrs
Mus musculus [4] = assay: (§1) Anti-inflammatory activity against imiquimod-induced psoriasis in male Balb/c mouse model assessed as reduction in scales score at 0.3 to 1.2 % administration as ointment pretreated with IMQ for 4 hrs followed by compound addition once daily from day 2 to 8; format: functional, organism-based; conditions: dose 0.3-1.2 %, time 2-8 day
Mus musculus [5] = assay: as §1, with “increase” for “reduction”, “skin thickness” for “scales score”, “8 by H and E staining based microscopic analysis” for “8”; format: functional, organism-based; conditions: dose 0.3-1.2 %, time 2-8 day
Mus musculus [6] = assay: as §1, with “Ki67+ cells in back skin” for “scales score”, “8 by Immunohistochemistry based microscopic analysis” for “8”; format: functional, organism-based; conditions: dose 0.3-1.2 %, time 2-8 day
Mus musculus [7] = assay: Anti-inflammatory activity against imiquimod-induced psoriasis in male Balb/c mouse model assessed as inhibition of IL-6 expression in skin at 0.3 to 1.2 % administration as ointment pretreated with IMQ for 4 hrs followed by compound addition once daily from day 2 to 8 by ELISA; format: functional, organism-based; conditions: dose 0.3-1.2 %, time 2-8 day
[8] = Drug absorption in suckling pig skin assessed as skin permeability by measuring transdermal amount per unit area administered topically as 1.2% ointment and measured upto 24 hrs by Franz diffusion cell system; format: ADME, tissue-based, Sus scrofa, Skin of body
Mus musculus [9] = assay: as §1, with “immune cell infiltration” for “scales score”, “8 by H and E staining based microscopic analysis” for “8”; format: functional, organism-based; conditions: dose 0.3-1.2 %, time 2-8 day
[10] = Apparent volume of distribution in male ICR mouse at 5 mg/kg, iv measured for 0.083 to 24 hrs by LC-MS/MS analysis; format: ADME, organism-based; conditions: in vivo, time 0.083-24 hrs, read-out: Vz
[11] = AUC (0 to t) in male ICR mouse at 5 mg/kg, iv measured for 0.083 to 24 hrs by LC-MS/MS analysis; format: ADME, organism-based; conditions: in vivo, time 0.083-24 hrs
[12] = Tmax in male ICR mouse at 10 mg/kg, po measured for 0.25 to 24 hrs by LC-MS/MS analysis; format: ADME, organism-based; conditions: in vivo, time 0.25-24 hrs
Mus musculus [13] = assay: Anti-inflammatory activity against imiquimod-induced psoriasis in male Balb/c mouse model assessed as inhibition of TNF-alpha expression in skin at 0.3 to 1.2 % administration as ointment pretreated with IMQ for 4 hrs followed by compound addition once daily from day 2 to 8 by ELISA; format: functional, organism-based; conditions: dose 0.3-1.2 %, time 2-8 day
[14] = Cmax in male ICR mouse at 10 mg/kg, po measured for 0.25 to 24 hrs by LC-MS/MS analysis; format: ADME, organism-based; conditions: in vivo, time 0.25-24 hrs
[15] = AUC (0 to t) in male ICR mouse at 10 mg/kg, po measured for 0.25 to 24 hrs by LC-MS/MS analysis; format: ADME, organism-based; conditions: in vivo, time 0.25-24 hrs
[16] = Drug absorption in suckling pig skin assessed as skin permeability by measuring steady state penetration rate administered topically as 1.2% ointment and measured upto 24 hrs by Franz diffusion cell system; format: ADME, tissue-based, Sus scrofa, Skin of body
Mus musculus [17] = assay: Anti-inflammatory activity against imiquimod-induced psoriasis in male Balb/c mouse model assessed as reduction in thickness score at 0.3 to 1.2 % administration as ointment pretreated with IMQ for 4 hrs followed by compound addition once daily from day 2 to 8; format: functional, organism-based; conditions: dose 0.3-1.2 %, time 2-8 day
[18] = Cytotoxicity against human HaCaT cells assessed as reduction in cell viability incubated for 24 hrs by CCK-8 assay; format: toxicity, cell-based
[19] = AUC (0 to infinity) in male ICR mouse at 5 mg/kg, iv measured for 0.083 to 24 hrs by LC-MS/MS analysis; format: ADME, organism-based; conditions: in vivo, time 0.083-24 hrs
RAW264.7 [20] = assay: Anti-inflammatory activity in mouse RAW264.7 cells assessed as inhibition of LPS-induced IL-6 production incubated for 24 hrs by ELISA; format: functional, cell-based; conditions: RAW264.7, 24 h
[21] = Cytotoxicity against mouse RAW264.7 cells assessed as reduction in cell viability incubated for 24 hrs by CCK-8 assay; format: toxicity, cell-based
[22] = AUC (0 to infinity) in male ICR mouse at 10 mg/kg, po measured for 0.25 to 24 hrs by LC-MS/MS analysis; format: ADME, organism-based; conditions: in vivo, time 0.25-24 hrs
Mus musculus [23] = assay: Anti-inflammatory activity against imiquimod-induced psoriasis in male Balb/c mouse model assessed as reduction in spleen weight at 0.3 to 1.2 % administration as ointment pretreated with IMQ for 4 hrs followed by compound addition once daily from day 2 to 8; format: functional, organism-based; conditions: dose 0.3-1.2 %, time 2-8 day
[24] = Initial plasma concentration in male ICR mouse at 5 mg/kg, iv measured for 0.083 to 24 hrs by LC-MS/MS analysis; format: ADME, organism-based; conditions: time 0.083-24 hrs
HaCaT = assay: Anti-inflammatory activity in human HaCaT cells assessed as inhibition of M5-induced TNF-alpha production incubated for 24 hrs by ELISA; format: functional, cell-based
Mus musculus [25] = species on record: Mus musculus; assay: Anti-inflammatory activity against imiquimod-induced psoriasis in male Balb/c mouse model assessed as reduction in skin lesions pretreated with IMQ for 4 hrs followed by compound addition once daily from day 2 to 8; format: functional, organism-based; conditions: dose 0.3-1.2 %, time 2-8 day
Mus musculus [26] = assay: Anti-inflammatory activity against imiquimod-induced psoriasis in male Balb/c mouse model assessed as reduction in erythema score at 0.3 to 1.2 % administration as ointment pretreated with IMQ for 4 hrs followed by compound addition once daily from day 2 to 8; format: functional, organism-based; conditions: dose 0.3-1.2 %, time 2-8 day
Mus musculus [27] = assay: Anti-inflammatory activity against imiquimod-induced psoriasis in male Balb/c mouse model assessed as increase in skin scales at 0.3 to 1.2 % administration as ointment pretreated with IMQ for 4 hrs followed by compound addition once daily from day 2 to 8 by H and E staining based microscopic analysis; format: functional, organism-based; conditions: dose 0.3-1.2 %, time 2-8 day
[28] = Oral bioavailability in male ICR mouse at 10 mg/kg measured for 0.25 to 24 hrs by LC-MS/MS analysis; format: ADME, organism-based; conditions: in vivo, time 0.25-24 hrs
[29] = Half life in male ICR mouse at 10 mg/kg, po measured for 0.25 to 24 hrs by LC-MS/MS analysis; format: ADME, organism-based; conditions: in vivo, time 0.25-24 hrs
RAW264.7 [30] = assay: Anti-inflammatory activity in mouse RAW264.7 cells assessed as inhibition of LPS-induced TNF-alpha production at 10 uM incubated for 24 hrs by ELISA relative to control; format: functional; design: scale not given: the % may be the effect or the level left
[31] = molecular target: T1, 3',5'-cyclic-AMP phosphodiesterase 4D (Homo sapiens, UniProt Q08499); assay: Inhibition of full-length PDE4D2 (unknown origin) using FAM-cAMP as substrate preincubated with compound for 15 mins followed by substrate addition and measured after 30 mins by fluorescence polarization based IMAP assay
T1 sequence (Q08499 whole entry): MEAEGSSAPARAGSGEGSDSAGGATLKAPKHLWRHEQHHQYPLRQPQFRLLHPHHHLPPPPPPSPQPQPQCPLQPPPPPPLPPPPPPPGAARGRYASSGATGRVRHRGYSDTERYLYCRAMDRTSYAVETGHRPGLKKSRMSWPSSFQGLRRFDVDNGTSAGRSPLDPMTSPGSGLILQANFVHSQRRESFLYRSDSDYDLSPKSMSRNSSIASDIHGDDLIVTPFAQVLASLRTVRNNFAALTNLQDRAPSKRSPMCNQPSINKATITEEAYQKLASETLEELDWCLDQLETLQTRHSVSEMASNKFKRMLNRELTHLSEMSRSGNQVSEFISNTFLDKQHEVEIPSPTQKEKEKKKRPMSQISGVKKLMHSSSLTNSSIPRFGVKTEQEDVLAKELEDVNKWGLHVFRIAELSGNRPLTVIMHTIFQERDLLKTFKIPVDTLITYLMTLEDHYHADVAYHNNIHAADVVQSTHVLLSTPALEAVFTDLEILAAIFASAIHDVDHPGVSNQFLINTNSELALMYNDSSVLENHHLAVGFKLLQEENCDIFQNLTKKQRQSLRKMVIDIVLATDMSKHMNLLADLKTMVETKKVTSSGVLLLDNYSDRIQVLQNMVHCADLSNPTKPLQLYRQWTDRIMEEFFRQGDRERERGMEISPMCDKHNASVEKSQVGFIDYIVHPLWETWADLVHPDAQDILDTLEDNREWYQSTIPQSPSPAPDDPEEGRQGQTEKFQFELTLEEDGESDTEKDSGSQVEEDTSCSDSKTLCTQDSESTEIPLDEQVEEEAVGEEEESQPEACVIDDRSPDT

[32] = molecular target: T1, 3',5'-cyclic-AMP phosphodiesterase 4D; assay: Inhibition of full-length PDE4D2 (unknown origin) using FAM-cAMP as substrate at 1 uM preincubated with compound for 15 mins followed by substrate addition and measured after 30 mins by fluorescence polarization based IMAP assay relative to control; conditions: time 45.0 min

Question: Which results are given for `O=C(NCc1cc(F)ccc1F)c1c[nH]c(-c2ccc(OC(F)F)c(OCC3CC3)c2)n1`?
Answer: clearance [1]: 16.6 mL/min/kg; IC50 (RAW264.7 [2]): 21.4 µM; half-life [3]: 0.94 h; Activity (Mus musculus [4]): Active; Activity (Mus musculus [5]): Active; Activity (Mus musculus [6]): Active; Activity (Mus musculus [7]): Active; Drug absorption [8]: 81.9 microg/cm2; Activity (Mus musculus [9]): Active; Vd [10]: 1.35 L/kg; AUC(0-t) [11]: 5010 ng·h/mL; Tmax [12]: 1 h; Activity (Mus musculus [13]): Active; Cmax [14]: 810 ng/mL; AUC(0-t) [15]: 3570 ng·h/mL; Jss [16]: 3.45 ug/cm2.hr; Activity (Mus musculus [17]): Active; CC50 at 24 h [18]: > 50 µM; AUC(0-inf) [19]: 5020 ng·h/mL; IC50 (RAW264.7 [20]): 29.2 µM; CC50 at 24 h [21]: > 50 µM; AUC(0-inf) [22]: 3930 ng·h/mL; Activity (Mus musculus [23]): Active; C0 [24]: 7320 ng/mL; IC50 (HaCaT): 22.9 µM; Activity (Mus musculus [25]): Dose-dependent-effect; Activity (Mus musculus [26]): Active; Activity (Mus musculus [27]): Active; bioavailability [28]: 35.6%; half-life [29]: 2.21 h

Question: Which Activity (RAW264.7 [30]) does the source give for `O=C(NCc1c(F)cccc1F)c1coc(-c2ccc(OC(F)F)c(OCC3CC3)c2)n1` here?
Answer: 9.32%

Question: What about the IC50 [31] of the same molecule?
Answer: 0.0273 µM

Question: With `O=C(NCc1ccc(F)c(F)c1)c1c[nH]c(-c2ccc(OC(F)F)c(OCC3CC3)c2)n1` as the molecule, how does the Activity (RAW264.7 [30]) read?
Answer: 12.03%

Question: And the IC50 [31]?
Answer: 0.0149 µM

Question: For `O=C(NCc1ncccn1)c1c[nH]c(-c2ccc(OC(F)F)c(OCC3CC3)c2)n1`, which IC50 (RAW264.7 [2]) is on record?
Answer: 27.3 µM

Question: What about the IC50 [31] of the same molecule?
Answer: 0.0005 µM

Question: And the CC50 at 24 h [18]?
Answer: > 50 µM

Question: And the IC50 (RAW264.7 [20])?
Answer: 38.4 µM

Question: And the CC50 at 24 h [21]?
Answer: > 50 µM

Question: What about the IC50 (HaCaT) of the same molecule?
Answer: 19.3 µM

Question: With `COc1cc(-c2nc(C(=O)NCc3ncccn3)c[nH]2)cc(OC)c1OC(F)F` as the molecule, how does the inhibition [32] read?
Answer: 0.8%

Question: Which inhibition [32] does the source give for `O=C(NCc1ncccn1)c1c[nH]c(-c2cc(OCC3CC3)c(OC(F)F)c(OCC3CC3)c2)n1` here?
Answer: 1.8%

Question: For `O=C(NCc1ncccn1)c1c[nH]c(-c2ccc(OC(F)F)c(OC(F)F)c2)n1`, which Activity (RAW264.7 [30]) is on record?
Answer: 4.06%

Question: What about the inhibition [32] of the same molecule?
Answer: 96.3%

Question: What does the source list for `O=C(NCC1CCOCC1)c1c[nH]c(-c2ccc(OC(F)F)c(OCC3CC3)c2)n1`?
Answer: Activity (RAW264.7 [30]): 24.03%; inhibition [32]: 93.9%

Question: With `O=C(Nc1ccccc1)c1coc(-c2ccc(OC(F)F)c(OCC3CC3)c2)n1` as the molecule, how does the Activity (RAW264.7 [30]) read?
Answer: 15.78%

Question: And the inhibition [32]?
Answer: 38.8%

Question: What does the source list for `O=C(NCc1ccccn1)c1c[nH]c(-c2ccc(OC(F)F)c(OCC3CC3)c2)n1`?
Answer: Activity (RAW264.7 [30]): 6.39%; inhibition [32]: 96.7%

Question: Which results are given for `Cn1ccc(NC(=O)c2c[nH]c(-c3ccc(OC(F)F)c(OCC4CC4)c3)n2)n1`?
Answer: Activity (RAW264.7 [30]): 18.46%; inhibition [32]: 58.8%

Question: Which Activity (RAW264.7 [30]) does the source give for `COC(=O)c1coc(-c2ccc(OC(F)F)c(OCC3CC3)c2)n1` here?
Answer: 26.96%

Question: And the inhibition [32]?
Answer: 70.1%

Question: For `O=C(NCc1ncccn1)c1coc(-c2ccc(OC(F)F)c(OCC3CC3)c2)n1`, which Activity (RAW264.7 [30]) is on record?
Answer: 4.98%

Question: What about the IC50 [31] of the same molecule?
Answer: 0.0182 µM

Question: Which Activity (RAW264.7 [30]) does the source give for `O=C(NCc1ccccc1)c1c[nH]c(-c2ccc(OC(F)F)c(OCC3CC3)c2)n1` here?
Answer: 8.88%

Question: And the inhibition [32]?
Answer: 91.1%

Question: Which Activity (RAW264.7 [30]) does the source give for `O=C(Nc1ccc2ncsc2c1)c1coc(-c2ccc(OC(F)F)c(OCC3CC3)c2)n1` here?
Answer: 25.05%

Question: And the inhibition [32]?
Answer: 39.6%

Question: Which results are given for `O=C(NCc1c(F)cc(F)cc1F)c1coc(-c2ccc(OC(F)F)c(OCC3CC3)c2)n1`?
Answer: Activity (RAW264.7 [30]): 7.53%; inhibition [32]: 87.8%

Question: With `COc1cc(-c2nc(C(=O)Nc3ccc4ncsc4c3)c[nH]2)cc(OC)c1OC(F)F` as the molecule, how does the inhibition [32] read?
Answer: 8.4%

Question: Which Activity (RAW264.7 [30]) does the source give for `O=C(NCc1ccc(F)cc1F)c1coc(-c2ccc(OC(F)F)c(OCC3CC3)c2)n1` here?
Answer: 18.06%

Question: And the inhibition [32]?
Answer: 67.6%

Question: With `O=C(Nc1ccncc1)c1coc(-c2ccc(OC(F)F)c(OCC3CC3)c2)n1` as the molecule, how does the Activity (RAW264.7 [30]) read?
Answer: 1.77%

Question: What about the inhibition [32] of the same molecule?
Answer: 59%
